Source: paper PMC3262907 (ACS Chemical Biology, 2011)

Key:
Format in all cases: cell-based
HeLa S3 cells = test: Proliferation assay; conditions: Homo sapiens, HeLa S3, 96 h, read-out: Cell EC50 HeLa
HT29 cells = test: Proliferation assay; conditions: Homo sapiens, HT-29, 96 h, read-out: Cell EC50 HT29
HCT116 cells = test: Proliferation assay; conditions: Homo sapiens, HCT-116, 96 h, read-out: Cell EC50 HCT 116
[1] = system: monopolar spindle formation; test: Spindle morphology by indirect immunofluorescence; conditions: cells arrested in metaphase

Structure (SMILES) | EC50 (HeLa S3 cells) | EC50 (HT29 cells) | EC50 (HCT116 cells) | concentration up to which no significant monopolarity resulted [1]
Cc1cc(Nc2cc(N3CCN(C)CC3)nc(Sc3ccc(NC(=O)C4CC4)cc3)n2)[nH]n1 [Compound 32, VX680] | 16.4 nM | 119 nM | 15.8 nM | 
CCN(CCCOc1ccc2c(Nc3cc(CC(=O)Nc4cccc(F)c4)n[nH]3)ncnc2c1)CCOP(=O)(O)O [Compound 33, AZD1152] | 3.8 nM | 239 nM | 17.4 nM | > 500 nM
O=C(O)c1ccc(Nc2ncc3c(n2)-c2ccc(Cl)cc2C(c2c(F)cccc2F)=NC3)cc1 [Compound 34, MLN8054] | 214 nM | 688 nM | 50.3 nM | 
